Molecules are shown by their SMILES.

Among the data in ChEMBL document CHEMBL3507680, “University of Dundee, Gates Library screen for HepG2 cell viability” are cytotoxicity values, retold here.

This series can be described thus: Human HepG2 cell viability assay in 384 well format. In kind it is toxicity, cell-based. The conditions noted are these: HepG2 cells, read-out: Inhibition. Also noted: dose 125 nL, time 70.5 hour; cytotoxicity at 70.5 h: concentration not given beside the values.

As to `COC(=O)CN1CCCN(C(=O)CCOc2cccc(C)c2C)CC1`, the cytotoxicity at 70.5 h was -5.13%.
Under `COc1c(C2CCCN2Cc2cccc(C(N)=O)c2)c(C)nn1C` (stereo not drawn) stands -2.05%.
For the compound `Cc1nn(C)c(Cl)c1C1CCCN1Cc1ccc(C(N)=O)cc1` (stereo not drawn), the cytotoxicity at 70.5 h was -7.15%.
Under `CCc1nnc2n1CCN(C(=O)c1ccc(-c3ccco3)[nH]c1=O)C2` stands -6.59%; under `Cc1cccc(OCCC(=O)N2CCN(CC(=O)NC3CC3)CC2)c1C`, -11.9%; under `CCc1noc(CN2CCCN(C(C)=O)CC2)n1`, -6.42%.
With `CCc1noc(CN2CCN(C(=O)C3CC3)CC2)n1`, the cytotoxicity at 70.5 h is -9.23%.
Under `CC(C)(O)CN1CCN(C(=O)c2ccc3c(c2)COC3)CC1` stands -5.78%; under `COCCCNC(=O)CN1CCC(N2CCN(C)C2=O)CC1`, -10.4%; under `CCOCc1cc(CNC2CCCc3c2cnn3CC)ccc1OC` (stereo not drawn), -1.88%.
Take `CCc1nnsc1C(=O)N1CCCC1c1c(C)nn(C)c1OC` (stereo not drawn): the cytotoxicity at 70.5 h was 13.9%.
On to `Cc1ccccc1CN(C)C(=O)CN1CCOC(Cn2cncn2)C1` (stereo not drawn), for which the cytotoxicity at 70.5 h was 1.73%.
Under `COc1c(C)cnc(CN2CCOC(Cn3cncn3)C2)c1C` (stereo not drawn) stands -3.24%; under `CC1CN(Cc2ccc(-n3cccn3)cc2)CCO1` (stereo not drawn), 0.696%.
Under `CS(=O)(=O)NCCCN1CCCC1c1cccc(Br)c1` (stereo not drawn) stands -9.99%; under `CCn1cc(CN2CCCN(C(=O)c3sc(C)nc3C)CC2)cn1`, 4.77%; under `CCn1cc(CN2CCCN(C(=O)c3ccc(C#N)cc3)CC2)cn1`, -4.62%.
Under `Cc1cnc(CN2CCCC2c2cnn(C)c2)cn1` (stereo not drawn) stands -10.3%; under `CC(=O)c1cccc(S(=O)(=O)NCc2cccnc2N(C)C)c1`, -6.06%.
With `COc1ccc(NC(=O)N(C)Cc2ccsc2)cn1`, the cytotoxicity at 70.5 h is -3.11%.
On to `N#CC1(NC(=O)CN2CCC(c3ccnn3CCO)CC2)CCCC1`, for which the cytotoxicity at 70.5 h is -11.9%.
Next, `O=C(CN1CCC(c2ccnn2CCO)CC1)NC1CCCC1`: -3.63%; `CCOc1cc(C)nc(N2CCN(C(=O)c3cn[nH]c3CC)CC2)n1`: -3.76%.
Take `O=C(CN1CCCC1Cn1cncn1)NCCC1=CCCCC1` (stereo not drawn): the cytotoxicity at 70.5 h amounted to 1.2%.
Under `Cn1cc(C2CCCN2Cc2csc(Cc3ccccc3)n2)cn1` (stereo not drawn) stands -8.68%; under `Cc1ccccc1-c1cc(C(=O)N2CCCC(n3ccnc3C)C2)[nH]n1` (stereo not drawn), 13.3%.
Next, `CCNc1cc2c(nn1)CCN(C(=O)CC1CCCC1)C2`: -5.46%; `CN(Cc1cccc(F)c1)C(=O)CN1CCOC(Cn2cncn2)C1` (stereo not drawn): -0.78%.
Under `Cc1nccn1C1CCCN(C(=O)c2cnc[nH]2)C1` (stereo not drawn) stands -0.305%.
For `COc1c(C)cnc(CN2CCCC2Cn2nc(C)nc2C)c1C` (stereo not drawn), the cytotoxicity at 70.5 h is -3.93%.
As to `CCn1cc(NC(=O)NCC(C)N2CCCC2)cn1` (stereo not drawn), the cytotoxicity at 70.5 h stood at 22.1%.
Under `Cc1ccc(-c2nc(CN3CCCC3Cn3cncn3)cs2)o1` (stereo not drawn) stands -2.7%.
Under `c1csc(-c2nc(CN3CCCCC3Cn3cncn3)cs2)c1` (stereo not drawn) stands -14.9%; under `CNS(=O)(=O)CCCN1CCCC1c1noc(C)n1` (stereo not drawn), -3.7%; under `Cc1ccoc1-c1nnc(CN2CCOC(Cn3cccn3)C2)o1` (stereo not drawn), -2.97%.
Under `CCN1CCN(C2CCN(Cc3nc(CCOC)no3)CC2)C1=O` stands -3.79%.
Regarding `COc1ccc(C(=O)N2CCCC(n3nc(C)nc3C)C2)c(OC)c1` (stereo not drawn), the cytotoxicity at 70.5 h came out at 21.8%.
Next, `CS(=O)(=O)CCN1CCCC1c1noc(C2CC2)n1` (stereo not drawn): 0.883%.
On to `Cn1c(NCC(O)c2ccc(Cl)cc2)c(C#N)c(=O)n(C)c1=O` (stereo not drawn), for which the cytotoxicity at 70.5 h was -4.06%.
With `Cn1c(NCC(O)c2ccccc2F)c(C#N)c(=O)n(C)c1=O` (stereo not drawn), the cytotoxicity at 70.5 h was -1.35%.
Take `CC(NC(=O)NCCCc1n[nH]c(N)c1C#N)c1ccccc1F` (stereo not drawn): the cytotoxicity at 70.5 h turned out to be 0.683%.
On to `CC(NC(=O)NCCCc1n[nH]c(N)c1C#N)c1cccc(Cl)c1` (stereo not drawn), for which the cytotoxicity at 70.5 h was -4.21%.
Under `Cn1c(NCC(O)c2ccc(F)cc2)c(C#N)c(=O)n(C)c1=O` (stereo not drawn) stands -5.75%; under `CCN1CCN(C(C)CNC(=O)Nc2cnn(CC)c2)CC1` (stereo not drawn), -7.65%; under `CCn1cc(NC(=O)NCC(C)N(C)C)cn1` (stereo not drawn), 18.2%.
As to `CC(C)c1noc(C(C)N2CCN(Cc3ccco3)CC2)n1` (stereo not drawn), the cytotoxicity at 70.5 h is -9.38%.
For the compound `Cc1ncc2c(n1)CN(CC(=O)Nc1nncs1)CC2`, the cytotoxicity at 70.5 h was -6.76%.
Next, `CN(C)C(=O)CS(=O)(=O)Cc1cc(Cl)c2c(c1)OCO2`: -2.34%; `Cc1nc(CN(Cc2cccs2)C2CCS(=O)(=O)C2)oc1C` (stereo not drawn): -16%; `CCc1nnc2n1CCN(C(=O)CN(C)Cc1ccccc1)C2`: -4.4%.
Next, `CCNc1cc2c(nn1)CCN(C(=O)Cc1noc3ccccc13)C2`: -12.5%; `CN(CC(=O)NC1(C#N)CCCC1)C1CCCN(c2cccnn2)C1` (stereo not drawn): -1.63%.
Next, `CCc1ccc(S(=O)(=O)Nc2cc(C(=O)O)c(F)cc2F)s1`: 26.3%; `Cc1nc(C2CCCN(C(=O)c3ccc(OCC4CC4)cc3)C2)no1` (stereo not drawn): 31%.
As for `Cc1cn2c(n1)CCC(NC(=O)CCn1cncn1)C2` (stereo not drawn), the cytotoxicity at 70.5 h is -8.43%.
Regarding `CN(C)CC1CN(Cc2csc(C3CCCC3)n2)CCO1` (stereo not drawn), the cytotoxicity at 70.5 h was -12.3%.
As for `COCCN1CCC(CNC(=O)c2cc(C)cc(C)c2)C1` (stereo not drawn), the cytotoxicity at 70.5 h is -11.9%.
As to `CCc1nc2n(n1)CC(NCc1noc(-c3ccccc3)n1)CC2` (stereo not drawn), the cytotoxicity at 70.5 h was 12.2%.
Turning to `O=C(c1cccn1Cc1cccs1)N1CCCC1Cn1cccn1` (stereo not drawn), the cytotoxicity at 70.5 h is -20.8%.
Under `OCCn1cc(CN2CCN(CCOCC(F)(F)F)CC2)cn1` stands 6.14%.
Under `CCc1nnc2n1CCN(Cc1ccc3c(c1)OCCO3)C2` stands 15.4%; under `CN(Cc1cnn(C)c1)C(=O)NCc1csc(Br)c1`, 17.7%; under `CCc1nnc2n1CCN(Cc1ccc(C(=O)N3CCCC3)cc1)C2`, -25.8%.
On to `Cc1cc(C2CCCN(C(=O)CN3CCN(C)CC3)C2)n[nH]1` (stereo not drawn), for which the cytotoxicity at 70.5 h is -11.8%.
Under `Cc1ncsc1C(=O)NCc1cccs1` stands -16.4%; under `Cn1cc(CCNC(=O)CCc2ccc3c(c2)OCO3)cn1`, -8.33%; under `CC(NC(=O)NCCCn1cncn1)c1ccc2c(c1)OCCO2` (stereo not drawn), -7.07%.
Under `Cc1ccc(C(C)N(C)Cc2nc3c(cnn3C)c(=O)[nH]2)cc1` (stereo not drawn) stands -17.2%; under `CC(c1ccco1)N(C)Cc1nc2c(cnn2C)c(=O)[nH]1` (stereo not drawn), -11.1%; under `CC(C(N)=O)N(C)CCCc1cc(-c2ccccc2)no1` (stereo not drawn), -2.88%.
Under `CS(=O)(=O)NC1CCN(C(=O)NCCNc2ccccn2)CC1` stands 20.3%.
Regarding `CCOc1ncccc1NC(=O)N1CCN(c2cccc(C)c2C)CC1`, the cytotoxicity at 70.5 h is 21.9%.
Next, `CC(=O)NCCNC(=O)N(C)Cc1ccc2c(c1)OCCO2`: -12%; `N#Cc1ccccc1OCCN1CCC(N2CCNC2=O)CC1`: -11.9%.
Turning to `O=C(CN1CCOC(Cn2cccn2)C1)Nc1nccs1` (stereo not drawn), the cytotoxicity at 70.5 h was -16.1%.
Under `COc1nc(C)cc(C)c1CNC(=O)N(C)Cc1cnn(C)c1` stands -18%; under `OCCn1cc(CN2CCN(CCOc3ccccc3)CC2)cn1`, -16%.
For the compound `Cc1cnn(CCNCc2ccc(C#N)cc2F)c1`, the cytotoxicity at 70.5 h is -13.7%.
Next, `Cc1cnn(CCNCc2ccc(F)cc2Cl)c1`: -10.2%; `Cc1nn(C)c(C)c1C1CCCN1C(=O)c1ccc(NC2CC2)nc1` (stereo not drawn): -17.5%.
As for `CNc1nc(CNC(=O)Nc2cccc(F)c2)cs1`, the cytotoxicity at 70.5 h is -6.65%.
Next, `COCCCN1CCCN(C(C)c2nc(C3CC3)no2)CC1` (stereo not drawn): -4.41%.
With `O=C(CN1CCOC(Cn2cccn2)C1)NCc1cccs1` (stereo not drawn), the cytotoxicity at 70.5 h was -8.73%.
In the case of `Cc1nc(C2CCCN2Cc2nnc(C3CC3)o2)no1` (stereo not drawn), the cytotoxicity at 70.5 h was 0.406%.
For the compound `CS(=O)(=O)N1CCCN(C(=O)c2ccc(Cn3ccccc3=O)o2)CC1`, the cytotoxicity at 70.5 h is -7.8%.
As for `COc1ccccc1CC(=O)N1CCC(NCc2cccnc2)CC1`, the cytotoxicity at 70.5 h turned out to be 24%.
Under `Cc1nc(C2CCCN2Cc2nc(C)c(C)o2)no1` (stereo not drawn) stands -2.71%; under `Cn1nccc1C1CCN(Cc2csc(-c3ncccn3)n2)CC1`, -5.7%; under `COCc1ccccc1CNc1nnc(C)c(C)c1C#N`, 21.2%.
Next, `NC(=O)Cc1ccc(NC(=O)C2CCOCC2)cc1`: -3.85%.
Under `CSc1ccc(CNC(c2ccccc2)c2nccn2C)cc1` (stereo not drawn) stands -1.21%; under `Cn1ccnc1C(NCc1csc(Br)c1)c1ccccc1` (stereo not drawn), -1.31%; under `CC(=O)NCCNC(=O)c1sc(-c2ccc(Cl)s2)nc1C`, 28.8%.
For `Cc1ncsc1C(=O)NCCn1nc2ccccn2c1=O`, the cytotoxicity at 70.5 h was -13.7%.
Next, `c1cnc(-c2nc(CN3CCC(c4ccn[nH]4)CC3)cs2)nc1`: 0.264%.
Under `CC(=O)N1CCCN(C(=O)c2csc(-c3ccc(C)cc3C)n2)CC1` stands -4.64%.
As to `O=C(NCc1ccccn1)Nc1cc(C(F)(F)F)c[nH]c1=O`, the cytotoxicity at 70.5 h amounted to 9.08%.
Next, `NC(=O)C1CCN(C(=O)c2ccn(-c3ccc(F)cc3)n2)C1` (stereo not drawn): -1.48%.
Next, `CC(=O)N1CCN(C(=O)NCc2csc(Br)c2)CC1`: -9.87%.
Turning to `CCOc1cc(C)nc(N2CCN(C(=O)c3ccc[nH]3)CC2)n1`, the cytotoxicity at 70.5 h was -7.65%.
Under `CC(C)CCOCCNC(=O)Nc1cc(C(F)(F)F)c[nH]c1=O` stands -2.4%; under `CCOC(=O)c1sc2ccsc2c1CNC(=O)CC`, -3.4%; under `c1nc2n(n1)CC(NCc1nc(-c3ccsc3)no1)CC2` (stereo not drawn), -8.53%.
